Activity calls are given as the source filed them. No cut-off for these calls is given here. Non-standard residues stand in square brackets, D forms with d. Residues, ends and D or L forms follow the SMILES beside them. *: point of attachment. Tetrazole5CO(2-(4-MeOPh)) = COc1ccc(-n2nnc(C(=O)*)n2)cc1; Trp(6-Cl) = N[C@@H](Cc1c[nH]c2cc(Cl)ccc12)C(=O)O; X1 = COc1ccc(N2N=C(C(=O)*)CC2C(N)=O)cc1; Methacryloyl = C=C(C)C(=O)* A value given as a limit tells only on which side of the number the result lay.

One data set concerns U2OS. Briefly: Drug uptake in human U2OS cells at 20 uM after 4 hrs by fluorescence microscopy. It is filed as ADME, cell-based.
As to `C=C(C)C(=O)NCCCC[C@H](NC(=O)[C@H](Cc1ccccc1)NC(=O)[C@@H](NC(=O)[C@H](CC(C)C)NC(C)=O)[C@@H](C)O)C(=O)N[C@@H](Cc1cnc[nH]1)C(=O)N[C@@H](Cc1ccc(O)cc1)C(=O)N[C@@H](Cc1c[nH]c2ccccc12)C(=O)N[C@@H](C)C(=O)N[C@@H](CCCN=C(N)N)C(=O)N[C@@H](CC(C)C)C(=O)N[C@@H](CCCCNC(=O)c1nnn(-c2ccc(OC)cc2)n1)C(=O)N[C@@H](CO)C(N)=O`, the Drug uptake result is recorded as “Active”. Still for that read-out and setting: the value for `C=C(C)C(=O)NCCCC[C@H](NC(=O)[C@H](Cc1ccccc1)NC(=O)[C@@H](NC(=O)[C@H](CC(C)C)NC(C)=O)[C@@H](C)O)C(=O)N[C@@H](Cc1cnc[nH]1)C(=O)N[C@@H](Cc1ccc(O)cc1)C(=O)N[C@@H](Cc1c[nH]c2ccccc12)C(=O)N[C@@H](CCCN=C(N)N)C(=O)N[C@@H](CCC(N)=O)C(=O)N[C@@H](CC(C)C)C(=O)N[C@@H](CCCCNC(=O)c1nnn(-c2ccc(OC)cc2)n1)C(=O)N[C@@H](CO)C(N)=O` was “Active”. Still for that read-out and setting: the value for `COc1ccc(N2N=C(C(=O)NCCCC[C@H](NC(=O)[C@H](CC(C)C)NC(=O)[C@H](CCC(N)=O)NC(=O)[C@H](CCCNC(=N)N)NC(=O)[C@H](Cc3c[nH]c4ccccc34)NC(=O)[C@H](Cc3ccc(O)cc3)NC(=O)[C@H](CCCNC(=N)N)NC(=O)[C@H](CCCCNC(C)=O)NC(=O)[C@H](Cc3ccccc3)NC(=O)[C@@H](NC(=O)[C@H](CC(C)C)NC(C)=O)[C@@H](C)O)C(=O)N[C@@H](CO)C(N)=O)CC2C(N)=O)cc1` (some centres not stated) (Ac-LTFK(Ac)RYWRQLK(X1)S-NH2) was “Active”. Turning to `C=C(C)C(=O)NCCCC[C@H](NC(=O)[C@H](Cc1ccccc1)NC(=O)[C@@H](NC(=O)[C@H](CC(C)C)NC(C)=O)[C@@H](C)O)C(=O)N[C@@H](CCCN=C(N)N)C(=O)N[C@@H](Cc1ccc(O)cc1)C(=O)N[C@@H](Cc1c[nH]c2ccccc12)C(=O)N[C@@H](C)C(=O)N[C@@H](CCCN=C(N)N)C(=O)N[C@@H](CC(C)C)C(=O)N[C@@H](CCCCNC(=O)c1nnn(-c2ccc(OC)cc2)n1)C(=O)N[C@@H](CO)C(N)=O` (Ac-LTFK(Methacryloyl)RYWARLK(Tetrazole5CO(2-(4-MeOPh)))S-NH2), the Drug uptake result is given as “Active”.

Consider `C=C(C)C(=O)NCCCC[C@H](NC(=O)[C@H](Cc1ccccc1)NC(=O)[C@@H](NC(=O)[C@H](CC(C)C)NC(C)=O)[C@@H](C)O)C(=O)N[C@@H](CCCNC(=N)N)C(=O)N[C@@H](Cc1ccc(O)cc1)C(=O)N[C@@H](Cc1c[nH]c2ccccc12)C(=O)N[C@@H](CCCNC(=N)N)C(=O)N[C@@H](CCC(N)=O)C(=O)N[C@@H](CC(C)C)C(=O)N[C@@H](CCCCNC(=O)c1nnn(-c2ccc(OC)cc2)n1)C(=O)N[C@@H](CO)C(N)=O` (Ac-LTFK(Methacryloyl)RYWRQLK(Tetrazole5CO(2-(4-MeOPh)))S-NH2), for which the Drug uptake result is reported as “Active”. The same measure, in the same setting: the value for `C=C(C)C(=O)NCCCC[C@H](NC(=O)[C@H](Cc1ccccc1)NC(=O)[C@@H](NC(=O)[C@H](CC(C)C)NC(C)=O)[C@@H](C)O)C(=O)N[C@@H](CCCN=C(N)N)C(=O)N[C@@H](Cc1ccc(O)cc1)C(=O)N[C@@H](Cc1c[nH]c2cc(Cl)ccc12)C(=O)N[C@@H](CCCN=C(N)N)C(=O)N[C@@H](CCC(N)=O)C(=O)N[C@@H](CC(C)C)C(=O)N[C@@H](CCCCNC(=O)c1nnn(-c2ccc(OC)cc2)n1)C(=O)N[C@@H](CO)C(N)=O` (Ac-LTFK(Methacryloyl)RY[Trp(6-Cl)]RQLK(Tetrazole5CO(2-(4-MeOPh)))S-NH2) was “Active”.

The target of a further data set is E3 ubiquitin-protein ligase Mdm2 (Homo sapiens, UniProt Q00987). The data set can be described thus: Inhibition of human GST-tagged Mdm2 expressed in Escherichia coli harboring integrated p53-Mmd2 protein assessed as blockade of enzyme-p53 interaction by ELISA assay. On the technique in general: An ELISA detects its analyte on a solid surface through an enzyme-linked reagent.
Chain of E3 ubiquitin-protein ligase Mdm2 (Q00987 whole entry): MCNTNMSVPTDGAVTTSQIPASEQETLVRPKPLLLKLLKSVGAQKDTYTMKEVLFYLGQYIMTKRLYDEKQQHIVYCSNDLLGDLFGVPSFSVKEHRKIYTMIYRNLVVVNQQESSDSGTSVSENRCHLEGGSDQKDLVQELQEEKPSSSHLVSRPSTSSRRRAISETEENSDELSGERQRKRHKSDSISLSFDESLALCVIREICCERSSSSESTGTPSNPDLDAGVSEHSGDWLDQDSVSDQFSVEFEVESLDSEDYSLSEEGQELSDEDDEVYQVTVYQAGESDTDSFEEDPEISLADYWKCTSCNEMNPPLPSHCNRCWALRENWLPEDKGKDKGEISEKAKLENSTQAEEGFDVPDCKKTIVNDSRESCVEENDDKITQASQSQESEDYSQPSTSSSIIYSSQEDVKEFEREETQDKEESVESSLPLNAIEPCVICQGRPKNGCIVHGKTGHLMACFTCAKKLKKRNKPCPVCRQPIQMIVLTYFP
One may read the IC50 as the midpoint of a concentration-inhibition curve. For `CC(=O)NCCCC[C@H](NC(=O)[C@H](Cc1ccccc1)NC(=O)[C@@H](NC(=O)[C@H](CC(C)C)NC(C)=O)[C@@H](C)O)C(=O)N[C@@H](Cc1cnc[nH]1)C(=O)N[C@@H](Cc1ccc(O)cc1)C(=O)N[C@@H](Cc1c[nH]c2ccccc12)C(=O)N[C@@H](C)C(=O)N[C@@H](CCC(N)=O)C(=O)N[C@@H](CC(C)C)C(=O)N[C@H](C(=O)N[C@@H](CO)C(N)=O)[C@@H](C)O`, the IC50 was less than 10 nM. Take `CC(=O)NCCCC[C@H](NC(=O)[C@H](CC(C)C)NC(=O)[C@H](CCC(N)=O)NC(=O)[C@H](C)NC(=O)[C@H](Cc1c[nH]c2ccccc12)NC(=O)[C@H](Cc1ccc(O)cc1)NC(=O)[C@H](Cc1cnc[nH]1)NC(=O)[C@H](CCC(=O)O)NC(=O)[C@H](Cc1ccccc1)NC(=O)[C@@H](NC(=O)[C@H](CC(C)C)NC(C)=O)[C@@H](C)O)C(=O)N[C@@H](CO)C(N)=O`: the IC50 was less than 48 nM. In the case of Ac-LTFEHYWAK(Ac)LTS-NH2, the IC50 is less than 48 nM. With Ac-LTFEHYWK(Ac)QLTS-NH2, the concentration for half-maximal inhibition (IC50) is less than 31 nM.

Another data set has as its system U2OS. Briefly: Induction of p53-dependent luciferase activity in human U2OS cells at 20 uM. Type of data set: functional, cell-based.
With `COc1ccc(N2N=C(C(=O)NCCCC[C@H](NC(=O)[C@H](CC(C)C)NC(=O)[C@H](CCC(N)=O)NC(=O)[C@H](CCCNC(=N)N)NC(=O)[C@H](Cc3c[nH]c4ccccc34)NC(=O)[C@H](Cc3ccc(O)cc3)NC(=O)[C@H](CCCNC(=N)N)NC(=O)[C@H](CCCCNC(C)=O)NC(=O)[C@H](Cc3ccccc3)NC(=O)[C@@H](NC(=O)[C@H](CC(C)C)NC(C)=O)[C@@H](C)O)C(=O)N[C@@H](CO)C(N)=O)CC2C(N)=O)cc1` (some centres not stated) (Ac-LTFK(Ac)RYWRQLK(X1)S-NH2), the outcome was inactive.

For the compound Ac-LTFEHYWAQLTS-NH2, the result was inactive.

The record behind these values is ChEMBL document CHEMBL1687880, “Synthesis of cell-permeable stapled peptide dual inhibitors of the p53-Mdm2/Mdmx interactions via photoinduced cycloaddition” (Bioorg Med Chem Lett, 2011).
